Laboratory results as given in paper PMC7529893, “Structural basis for substrate recognition and chemical inhibition of oncogenic MAGE ubiquitin ligases” (Nature Communications, 2020).

What follows are compounds tested against T1, MAGE-A11:PCF11 interaction (GST-MAGE-A11 and FAM-PCF11_4) (Homo sapiens, UniProt P43364) (assay: TR-FRET primary / single point screen at 15 µM). Settings: single point TR-FRET screening of 797 quinoline compounds against MAGE-A11:PCF11.
T1 construct: GST-MAGE-A11 MHD (human MAGE-A11 MHD amino acid 218-429); made in house; host or cells: E. coli BL21(DE3)
T1 sequence (P43364 218-429): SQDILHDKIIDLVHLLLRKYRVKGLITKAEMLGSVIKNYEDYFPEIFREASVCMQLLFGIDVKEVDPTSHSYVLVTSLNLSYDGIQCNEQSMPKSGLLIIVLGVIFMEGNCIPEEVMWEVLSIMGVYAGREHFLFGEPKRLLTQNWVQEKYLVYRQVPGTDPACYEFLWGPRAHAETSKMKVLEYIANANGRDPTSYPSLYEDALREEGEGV
Assay type: binding
Summary of the method: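 TR-FRET 520/490 nm emission ratio was read after 90 min at room temperature. Wells held 5 nM GST-MAGE-A11, 5 nM Tb-anti-GST, 200 nM FAM-PCF11_4 and 15 µM compound in Tris pH 7.5 buffer with MgCl2, BSA and DTT. %Inhibition was scaled to DMSO and minus-MAGE-A11 controls.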

Structure (SMILES)	percent inhibition (TR-FRET)
CCCCCN(CCCCC)CC(=O)Nc1c2c(nc3ccccc13)CCC2 [SJ000487033]	-68.0728
COC(=O)CN1CCN(c2cc(C)nc3ccccc23)C(C)C1=O (centres unmarked) [SJ000516812]	3.503
Clc1ccc2c(N3CCN(CCCN4CCN(c5ccnc6cc(Cl)ccc56)CC4)CC3)ccnc2c1 [SJ000518980]	-2.9894
Cc1[nH]cnc1CN(CCCCNc1ccnc2cc(Cl)ccc12)Cc1ccccc1 [SJ000520428]	15.1059

Same assay, conditions: single point TR-FRET screening of quinoline compounds against MAGE-A11:PCF11; 15 µM

Structure (SMILES)	percent inhibition (TR-FRET)
CCCN(CCCNc1ccnc2cc(C(F)(F)F)ccc12)Cc1ccncc1 [SJ000361251]	17.4864
CCCN(CCCNc1ccnc2cc(C(F)(F)F)ccc12)Cc1ccccn1 [SJ000361252]	15.1623
CCCN(CCCNc1ccnc2cc(C(F)(F)F)ccc12)Cc1cccs1 [SJ000361253]	19.5346
CCCN(CCCNc1ccnc2cc(C(F)(F)F)ccc12)Cc1ccsc1 [SJ000361254]	28.8755
CCCN(CCCNc1ccnc2cc(C(F)(F)F)ccc12)Cc1ccc[nH]1 [SJ000361255]	30.6641
CCCN(CCCNc1ccnc2cc(C(F)(F)F)ccc12)Cc1ccccc1 [SJ000361256]	28.8195
CCCN(CCCNc1ccnc2cc(C(F)(F)F)ccc12)Cc1ccccc1O [SJ000361257]	26.5044
CCCN(CCCNc1ccnc2cc(C(F)(F)F)ccc12)Cc1ccc(C)s1 [SJ000361258]	19.0825
CCCN(CCCNc1ccnc2cc(C(F)(F)F)ccc12)Cc1ccccc1C(F)(F)F [SJ000361259]	4.988
CCCN(CCCNc1ccnc2cc(C(F)(F)F)ccc12)Cc1cccc(OC)c1O [SJ000361260]	15.4935
CCCN(CCCNc1ccnc2cc(C(F)(F)F)ccc12)Cc1ccc(C)o1 [SJ000361261]	23.9069
CCCN(CCCNc1ccnc2cc(C(F)(F)F)ccc12)Cc1c(F)cccc1OC [SJ000361262]	29.228
CCCN(CCCNc1ccnc2cc(C(F)(F)F)ccc12)Cc1cc(OC)ccc1O [SJ000361263]	25.2582
CCCN(CCCNc1ccnc2cc(C(F)(F)F)ccc12)Cc1c(C)cc(C)cc1C [SJ000361264]	19.9321
CCCN(CCCNc1ccnc2cc(C(F)(F)F)ccc12)Cc1ccco1 [SJ000361265]	24.1057
CCCN(CCCNc1ccnc2cc(C(F)(F)F)ccc12)CC1CC1 [SJ000361266]	48.1534
CCCN(CCCNc1ccnc2cc(C(F)(F)F)ccc12)Cc1ccoc1 [SJ000361267]	28.5489
CCCN(CCCNc1ccnc2cc(C(F)(F)F)ccc12)CC1CCCCC1 [SJ000361268]	33.314
CCCN(CCCNc1ccnc2cc(C(F)(F)F)ccc12)CC(CC)CC [SJ000361269]	30.6641
CCCN(CCCNc1ccnc2cc(C(F)(F)F)ccc12)Cc1ccc2c(c1)OCO2 [SJ000361270]	5.623
CCCCCN(CCC)CCCNc1ccnc2cc(C(F)(F)F)ccc12 [SJ000361271]	30.9303
CCCN(CCCNc1ccnc2cc(C(F)(F)F)ccc12)Cc1ccc(F)c(F)c1 [SJ000361272]	13.8395
CCCN(CCCNc1ccnc2cc(C(F)(F)F)ccc12)Cc1ccc(OC)cc1 [SJ000361273]	22.8956
CCCN(CCCNc1ccnc2cc(C(F)(F)F)ccc12)Cc1ccccc1F [SJ000361274]	19.2187
COC(=O)CCCCCN(CCCNc1ccnc2cc(Cl)ccc12)Cc1ccccc1 [SJ000520429]	17.1364
